According to patent US20230183798A1, “COMPOSITIONS AND METHODS FOR MODIFYING POLYMERASE-NUCLEIC ACID COMPLEXES” (Pacific Biosciences of California, Inc., priority 2020, published 2023):

Legend:
[1] = system: polymerase-nucleic acid complexes (ternary complexes); assay: Stripping nucleotides from ternary complexes: crosstalk metrics after NSB wash in 2x2 examination sequencing; assay type: biochemical; details: for Capability of stripping nucleotides from ternary complexes while retaining polymerase on primed-template nucleic acid: candidate in NSB; for A_T crosstalk (Cy5-dATP carryover from first exam into second exam) compared to NSB having isopropanol / C_G crosstalk (carryover of C signal from first exam into G channel of second exam) compared to NSB having isopropanol: alternating cycles vs 20% v/v isopropanol (SOP); for Overall performance of NSB having candidate vs NSB having isopropanol: vs 20% v/v isopropanol (SOP) NSB; for Concentration range in NSB found effective: other concentrations tested in addition to Table 1
Protocol: Template nucleic acid strands synthesized in 12 PCR reactions were prepared, and then independently bound to beads. […] Beads harboring immobilized template strands were then attached to the inner surface of a flow cell. Sequencing was performed for 22 cycles, where each cycle included subroutines for (i) Extension: adding a reversibly terminated nucleotide to primers that were hybridized to the immobilized templates, (ii) Examination: forming and detecting stabilized ternary complexes on the reversibly terminated, immobilized primer-template hybrids, and (iii) Activation: cleaving the reversible terminator from the extended primers.
The Examination subroutine was performed in a 2×2 format as diagrammed in FIG. 1. Specifically, a mixture of Cy5 labelled dATP, Cy7 labelled dCTP, unlabeled dTTP and unlabeled dGTP was delivered to the flow cell that contained polymerase-nucleic acid complexes on the beads, the system paused fluid flow to allow nucleotides to bind at cognate positions of the templates, thereby forming ternary complexes. Free nucleotide was removed from the flow cell by flowing IMG reagent. […] The flow cell was then imaged via fluorescence microscopy to detect ternary complexes that contained a labeled nucleotide that was a cognate for the next correct nucleotide in each of the template nucleic acids. The flow cell was then washed with NSB solutions having various compositions as set forth below. After the NSB wash, a mixture of Cy5 labelled dTTP, Cy7 labelled dGTP, unlabeled dCTP and unlabeled dATP was delivered to the flow cell, and the system paused fluid flow to allow nucleotides to bind, thereby forming ternary complexes. Free nucleotide was removed by flowing IMG reagent and then the flow cell was again imaged.
The concentrations are provided as a percentage in weight of compound per total volume of NSB (w/v) or volume of compound per total volume of NSB (v/v). The concentration can also be expressed as a molar concentration and this can be helpful, for example, as a way to compare the amounts of each compound tested. […] The molar concentrations of 1,5 pentanediol, propylene glycol, hexylene glycol, sulfolane, DMSO, ethyl methyl sulfone and 2-mthoxy ethanol in NSB were similar to the molar concentration of isopropanol in the SOP NSB.
The effectiveness of each candidate compound was determined from the following crosstalk metrics. The A_T crosstalk metric indicates how much Cy5-dATP is carried over from the first exam such that it is detected in the second exam. Similarly, the C_G crosstalk metric indicates how much Cy7-dCTP is carried over from the first exam such that it is detected in the second exam. A lower value for the crosstalk metric indicates less carryover and is correlated with improved sequencing results. On the other hand, a higher value for the crosstalk metric indicates more carryover and lower quality sequencing results.
Results were evaluated as a comparison of crosstalk metrics measured for NSB having 20% v/v/isopropanol (SOP) compared to the crosstalk metric measured for NSB having each of the respective candidate compounds. In all cases, the comparisons were based on data obtained for sequencing runs performed in a single lane of a flow cell. The format of the run was as follows: Cycle_1(SOP)=>Cycle_2(candidate)=>Cycle_3(SOP)=>Cycle_4(candidate) and so on. The crosstalk metric was determined separately for the SOP and candidate cycles, respectively. This format was used to minimize the confounding influence of run-to-run variations when comparing between SOP and each candidate.

[2] = Stability of NSB fluid foam in a flow cell; assay type: physicochemical; details: 28% 1,6 hexanediol or 20% isopropanol, 55° C., images before and after 1 minute pause in flow
Protocol: NSB fluid foam having 20% isopropanol (SOP) or 28% 1,6 hexanediol was flowed through a flow cell (40 μl/s flow rate, 300 μl volume, 35 psi positive pressure, 55° C.). The flow was paused and a first image of the foam was acquired immediately. The foam was allowed to sit for 60 seconds and then a second image was taken.

[3] = Solubility of candidate compound in NSB; assay type: physicochemical; details: NSB solution
[4] = NSB with candidate at Table 1 concentration, lower = less carryover

Compound | Capability of stripping nucleotides from ternary complexes while retaining polymerase on primed-template nucleic acid [1] | A_T crosstalk (Cy5-dATP carryover from first exam into second exam) compared to NSB having isopropanol [1, 4] | C_G crosstalk (carryover of C signal from first exam into G channel of second exam) compared to NSB having isopropanol [1, 4] | Overall performance of NSB having candidate vs NSB having isopropanol [1] | Concentration range in NSB found effective [1] | other results
NCCCO [3-Amino-1-propanol] | can also be useful |  |  |  |  | 
O=S1(=O)CCCC1 [sulfolane] |  | comparable | better | outperformed NSB having isopropanol |  | 
CC(C)O [Isopropanol, reference compound] |  |  |  |  | 16-20% | Foam stability [2]: foam can be maintained to some degree
OCCCCCCCCO [1,8 octanediol] |  |  |  |  |  | Solubility in NSB [3]: not immediately soluble
OCCCCCCCO [1,7 heptanediol] |  | better | better | outperformed NSB having isopropanol |  | 
OCCCCCO [1,5 pentanediol] |  | stronger | stronger |  |  | A_T crosstalk metric [1, 4]: about 0.16; C_G crosstalk metric [1, 4]: about 0.16
hexylene glycol | capable of stripping nucleotides from ternary complexes while retaining polymerase association with primed-template nucleic acid |  |  | did not perform as well as isopropanol |  | 
CC(O)CCO (stereo not drawn) [1,3 butanediol] | capable of stripping nucleotides from ternary complexes while retaining polymerase association with primed-template nucleic acid |  |  | did not perform as well as isopropanol |  | 
CC(O)CO (stereo not drawn) [Propylene glycol] | capable of stripping nucleotides from ternary complexes while retaining polymerase association with primed-template nucleic acid |  |  | did not perform as well as isopropanol |  | 
OCCCCCCO [1,6 hexanediol] |  | modestly lower | significantly lower | outperformed NSB having isopropanol | 10-31% | Flammability (Flammability): non-flammable; Foam stability [2]: greater foam stability
C[S+](C)[O-] [DMSO, dimethyl sulfoxide] |  | stronger |  |  | 21-26% | A_T crosstalk metric [1, 4]: below 0.35
CCS(C)(=O)=O [ethyl methyl sulfone] |  | stronger |  |  | 1.4-2.8% | A_T crosstalk metric [1, 4]: below 0.2
COCCO [2-methoxy ethanol] | can also be useful |  |  |  |  | 
